Measurements as given in the Kinase Knowledgebase extract (Sharma et al. 2016).

Each compound was assayed against PIK3CG (human) (UniProt P48736) (assay: Assessment of PIK3CG Kinase Activity).
Sequence of PIK3CG (human) (P48736 whole entry, looked up): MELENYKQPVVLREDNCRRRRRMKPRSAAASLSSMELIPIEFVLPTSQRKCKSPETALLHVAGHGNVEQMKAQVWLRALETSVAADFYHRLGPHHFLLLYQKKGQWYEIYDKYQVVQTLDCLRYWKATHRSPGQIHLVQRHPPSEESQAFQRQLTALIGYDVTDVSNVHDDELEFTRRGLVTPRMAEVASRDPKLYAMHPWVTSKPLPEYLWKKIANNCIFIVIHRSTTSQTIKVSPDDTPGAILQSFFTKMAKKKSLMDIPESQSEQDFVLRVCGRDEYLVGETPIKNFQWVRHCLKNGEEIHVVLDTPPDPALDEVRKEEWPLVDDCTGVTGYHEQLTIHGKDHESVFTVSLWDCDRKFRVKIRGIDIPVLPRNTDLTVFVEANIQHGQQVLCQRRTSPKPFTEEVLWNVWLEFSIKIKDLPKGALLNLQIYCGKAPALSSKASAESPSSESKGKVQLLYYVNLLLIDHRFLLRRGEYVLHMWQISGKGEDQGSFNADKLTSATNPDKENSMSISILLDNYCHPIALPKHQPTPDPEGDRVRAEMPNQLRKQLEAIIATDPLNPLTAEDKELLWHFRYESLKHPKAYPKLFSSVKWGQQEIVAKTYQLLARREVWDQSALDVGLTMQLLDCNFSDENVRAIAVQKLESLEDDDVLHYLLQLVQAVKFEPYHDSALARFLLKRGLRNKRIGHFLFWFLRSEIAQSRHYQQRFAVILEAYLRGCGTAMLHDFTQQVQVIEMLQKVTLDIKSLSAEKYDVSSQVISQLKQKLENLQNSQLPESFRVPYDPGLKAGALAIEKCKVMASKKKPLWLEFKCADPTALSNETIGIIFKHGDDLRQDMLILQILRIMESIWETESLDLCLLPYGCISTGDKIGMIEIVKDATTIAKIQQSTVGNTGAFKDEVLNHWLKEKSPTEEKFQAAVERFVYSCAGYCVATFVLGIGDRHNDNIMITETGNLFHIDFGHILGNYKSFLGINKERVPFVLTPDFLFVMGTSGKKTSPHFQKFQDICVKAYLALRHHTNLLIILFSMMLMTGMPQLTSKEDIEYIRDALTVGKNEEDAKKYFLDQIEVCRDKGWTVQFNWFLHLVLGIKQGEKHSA

Row | SMILES | IC50
1 | CC1(C)C(c2ccccc2)CCN1C(=O)Nc1nc2c(s1)-c1nc(-c3ccccc3Cl)ncc1CC2 (stereo unspecified) | < 0.8 µM
2 | O=C(NCc1ccc2c(c1)OCO2)Nc1nc2c(s1)-c1nc(-c3ccccc3Cl)ncc1CC2 | < 0.8 µM
3 | O=C(NCCC(=O)N1CCCC1)Nc1nc2c(s1)-c1nc(-c3ccccc3Cl)ncc1CC2 | < 0.8 µM
4 | Cn1nc(CNC(=O)Nc2nc3c(s2)-c2nc(-c4ccccc4Cl)ncc2CC3)cc1O | < 0.8 µM
5 | COCCC(=O)N[C@H]1CCN(C(=O)Nc2nc3c(s2)-c2nc(-c4ccccc4Cl)ncc2CC3)C1 | < 0.8 µM
6 | CCc1cnc(CCNC(=O)Nc2nc3c(s2)-c2nc(-c4ccccc4Br)ncc2CC3)o1 | < 0.8 µM
7 | CC(C)(C)CNC(=O)CCNC(=O)Nc1nc2c(s1)-c1nc(-c3ccccc3Cl)ncc1CC2 | < 0.8 µM
8 | CCNC(=O)Nc1nc2c(s1)-c1nc(-c3cccc(F)c3Cl)ncc1CC2 | < 0.8 µM
9 | Cc1nc2ccccc2n1CC(C)(C)NC(=O)Nc1nc2c(s1)-c1nc(-c3ccccc3Cl)ncc1CC2 | < 0.8 µM
10 | CC(C)(C)CC(=O)N[C@H]1CCN(C(=O)Nc2nc3c(s2)-c2nc(-c4ccccc4Cl)ncc2CC3)C1 | < 0.8 µM
11 | Nc1c(Br)cc(OCC2CCN(C(=O)Nc3nc4c(s3)-c3nc(-c5ccccc5Cl)ncc3CC4)C2)cc1Br (stereo unspecified) | < 0.8 µM
12 | CC(=O)N[C@@H]1CCN(C(=O)Nc2nc3c(s2)-c2nc(-c4ccccc4Cl)ncc2CC3)C1 | < 0.8 µM
13 | CN(C)C(=O)CNC(=O)Nc1nc2c(s1)-c1nc(-c3ccccc3Cl)ncc1CC2 | < 0.8 µM
14 | O=C(Nc1nc2c(s1)-c1nc(-c3ccccc3Cl)ncc1CC2)N1CC[C@H](NC(=O)N2CCCC2)C1 | < 0.8 µM
15 | Cc1cccc(CNC(=O)Nc2nc3c(s2)-c2nc(-c4ccccc4Cl)ncc2CC3)c1 | < 0.8 µM
16 | CCn1ccc(CNC(=O)Nc2nc3c(s2)-c2nc(-c4ccccc4Cl)ncc2CC3)n1 | < 0.8 µM
17 | CCN1CCC2(CCN(C(=O)Nc3nc4c(s3)-c3nc(-c5ccccc5Cl)ncc3CC4)C2)C1 (stereo unspecified) | < 0.8 µM
18 | O=C(NCCC(=O)N1CCOCC1)Nc1nc2c(s1)-c1nc(-c3ccccc3Cl)ncc1CC2 | < 0.8 µM
19 | CS(=O)(=O)c1cccc(CNC(=O)Nc2nc3c(s2)-c2nc(-c4ccccc4Cl)ncc2CC3)c1 | < 0.8 µM
20 | CC(C)c1nnc(CCNC(=O)Nc2nc3c(s2)-c2nc(-c4ccccc4C(F)(F)F)ncc2CC3)o1 | < 0.8 µM
21 | CC(C)(C)OC(=O)N1CCC[C@@H]1CNC(=O)Nc1nc2c(s1)-c1nc(-c3ccccc3Cl)ncc1CC2 | < 0.8 µM
22 | CNC(=O)Nc1nc2c(s1)-c1nc(-c3cccc(F)c3Cl)ncc1CC2 | < 0.8 µM

Row | SMILES | IC50
23 | O=C(NCC1CCOCC1)Nc1nc2c(s1)-c1nc(-c3ccccc3Cl)ncc1CC2 | < 0.8 µM
24 | CC(C)CC(=O)Nc1cccc(CNC(=O)Nc2nc3c(s2)-c2nc(-c4ccccc4Cl)ncc2CC3)c1 | < 0.8 µM
25 | O=C(NCCc1ccncc1)Nc1nc2c(s1)-c1nc(-c3ccccc3Cl)ncc1CC2 | < 0.8 µM
26 | O=C(NCCc1nc(C2CC2)no1)Nc1nc2c(s1)-c1nc(-c3ccccc3Cl)ncc1CC2 | < 0.8 µM
27 | CCNC(=O)Nc1nc2c(s1)-c1nc(-c3ccccc3F)ncc1CC2 | < 0.8 µM
28 | CC1CC(c2ccc(O)cc2)CN1C(=O)Nc1nc2c(s1)-c1nc(-c3ccccc3Cl)ncc1CC2 (stereo unspecified) | < 0.8 µM
29 | O=C(NCc1cccc(NC(=O)C2CCCC2)c1)Nc1nc2c(s1)-c1nc(-c3ccccc3Cl)ncc1CC2 | < 0.8 µM
30 | O=C(NCc1cccc(N2CCCC2=O)c1)Nc1nc2c(s1)-c1nc(-c3ccccc3Cl)ncc1CC2 | < 0.8 µM
31 | COCC(=O)N[C@H]1CCN(C(=O)Nc2nc3c(s2)-c2nc(-c4ccccc4Cl)ncc2CC3)C1 | < 0.8 µM
32 | O=C(NCc1cccc(N2CCNC2=O)c1)Nc1nc2c(s1)-c1nc(-c3ccccc3Br)ncc1CC2 | < 0.8 µM
33 | O=C(NCCc1cn[nH]c1)Nc1nc2c(s1)-c1nc(-c3ccccc3Cl)ncc1CC2 | < 0.8 µM
34 | CN(C)C(=O)Nc1nc2c(s1)-c1nc(-c3ccccc3F)ncc1CC2 | < 0.8 µM
35 | O=C(Nc1nc2c(s1)-c1nc(-c3ccccc3Cl)ncc1CC2)N1CCCC(C(O)c2ccccc2)C1 (stereo unspecified) | < 0.8 µM
36 | CS(=O)(=O)N[C@@H]1CCN(C(=O)Nc2nc3c(s2)-c2nc(-c4ccccc4Cl)ncc2CC3)C1 | < 0.8 µM
37 | CCc1cnc(CCNC(=O)Nc2nc3c(s2)-c2nc(-c4ccccc4Cl)ncc2CC3)o1 | < 0.8 µM
38 | O=C(NCCc1ccc2c(c1)OCCO2)Nc1nc2c(s1)-c1nc(-c3ccccc3Cl)ncc1CC2 | < 0.8 µM
39 | NC(=O)Nc1nc2c(s1)-c1nc(-c3ccccc3Br)ncc1CC2 | < 0.8 µM
40 | O=C(NCC1CCCCC1)Nc1nc2c(s1)-c1nc(-c3ccccc3Cl)ncc1CC2 | < 0.8 µM
41 | COCCCNC(=O)Nc1nc2c(s1)-c1nc(-c3ccccc3Cl)ncc1CC2 | < 0.8 µM
42 | O=C(NCc1cccc(C(=O)N2CCCC2)c1)Nc1nc2c(s1)-c1nc(-c3ccccc3Cl)ncc1CC2 | < 0.8 µM
43 | COc1ccc(CCNC(=O)Nc2nc3c(s2)-c2nc(-c4ccccc4Cl)ncc2CC3)cc1OC | < 0.8 µM
44 | COC(=O)N[C@@H]1CCN(C(=O)Nc2nc3c(s2)-c2nc(-c4ccccc4Cl)ncc2CC3)C1 | < 0.8 µM

Row | SMILES | IC50
45 | O=C(Nc1nc2c(s1)-c1nc(-c3ccccc3Cl)ncc1CC2)N1CC[C@@H](NC(=O)N2CCCCC2)C1 | < 0.8 µM
46 | O=C(NCc1ccccc1)Nc1nc2c(s1)-c1nc(-c3ccccc3Cl)ncc1CC2 | < 0.8 µM
47 | CN(C)C(=O)Nc1nc2c(s1)-c1nc(C(C)(C)C)ncc1CC2 | < 0.8 µM
48 | O=C(NCc1ccco1)Nc1nc2c(s1)-c1nc(-c3ccccc3Cl)ncc1CC2 | < 0.8 µM
49 | O=C(Nc1nc2c(s1)-c1nc(-c3ccccc3Cl)ncc1CC2)NC1CC1 | < 0.8 µM
50 | O=C(O)[C@H]1[C@H](c2ccccc2)CCN1C(=O)Nc1nc2c(s1)-c1nc(-c3ccccc3Cl)ncc1CC2 | < 0.8 µM
51 | CN(C)C(=O)c1cccc(CNC(=O)Nc2nc3c(s2)-c2nc(-c4ccccc4Cl)ncc2CC3)c1 | < 0.8 µM
52 | CC(C)NC(=O)Nc1nc2c(s1)-c1nc(-c3ccccc3Cl)ncc1CC2 | < 0.8 µM
53 | CC(C)(CNc1ncccn1)NC(=O)Nc1nc2c(s1)-c1nc(-c3ccccc3Cl)ncc1CC2 | < 0.8 µM
54 | CNC(=O)Nc1nc2c(s1)-c1nc(C(C)(C)C)ncc1CC2 | < 0.8 µM
55 | O=C(Nc1nc2c(s1)-c1nc(-c3ccccc3Cl)ncc1CC2)NC1CCC1 | < 0.8 µM
56 | CCc1noc(CCNC(=O)Nc2nc3c(s2)-c2nc(-c4ccccc4Br)ncc2CC3)n1 | < 0.8 µM
57 | O=C(NCCc1ccccc1)Nc1nc2c(s1)-c1nc(-c3ccccc3Cl)ncc1CC2 | < 0.8 µM
58 | CCn1cnc(CCNC(=O)Nc2nc3c(s2)-c2nc(-c4ccccc4Cl)ncc2CC3)c1 | < 0.8 µM
59 | CCNC(=O)Nc1nc2c(s1)-c1nc(-c3ccccc3Br)ncc1CC2 | < 0.8 µM
60 | O=C(Nc1nc2c(s1)-c1nc(-c3ccccc3Cl)ncc1CC2)NC1CCCCC1 | < 0.8 µM
61 | CN1CCN(Cc2cccc(NC(=O)Nc3nc4c(s3)-c3nc(-c5ccccc5Cl)ncc3CC4)c2)CC1 | < 0.8 µM
62 | O=C(NCc1cc(C2CC2)n[nH]1)Nc1nc2c(s1)-c1nc(-c3ccccc3Cl)ncc1CC2 | < 0.8 µM
63 | O=C(NC[C@@H]1CCCN1C(=O)OCc1ccccc1)Nc1nc2c(s1)-c1nc(-c3ccccc3Cl)ncc1CC2 | < 0.8 µM
64 | CC(C)(C)OC(=O)NCC1CCCN1C(=O)Nc1nc2c(s1)-c1nc(-c3ccccc3Cl)ncc1CC2 (stereo unspecified) | < 0.8 µM
65 | CC(C)(C)OC(=O)N1CCN(c2ccc(NC(=O)Nc3nc4c(s3)-c3nc(-c5ccccc5Cl)ncc3CC4)cc2)CC1 | < 0.8 µM
66 | CCCn1cnc(CCNC(=O)Nc2nc3c(s2)-c2nc(-c4ccccc4Cl)ncc2CC3)c1 | < 0.8 µM
